The text below walks through data of US6384055B1, “Utilization of derivatives of tetrahydropyridines (or 4-hydroxypiperidines)-butylazols in the preparation of a medicament for the treatment of pain” (Laboratorios Del Dr. Esteves, S.A., priority 1998, dated 2002).

SMILES strings stand for the structures.

Experiment [1] concerns Swiss albino mice. The experiment is described as follows: assay of contortions induced by phenylbenzoquinone. The format is in vivo. The conditions noted are these: for ED50: Mus musculus.
In experiment [2] the test system is Swiss albino mice. The experiment is described as follows: hot-plate assay. The format is in vivo. The conditions noted are these: Mus musculus, 0.5 h, sc, hot-plate 55° C., 30 minutes after administration, read-out: ED-50 hot-plate assay (55° C.).
Protocol: The product under study was administered s.c. or i.p. and 30 minutes later the analgesic effect was registered. For this the animals were placed on a metallic surface kept at 50° C. or 55° C. and the time registered (latency) until the licked their hind legs and a jump. The analgesic activity was calculated at each dose, comparing the potency of the treated group with the control group. Using the results obtained the ED-50 was calculated.
[3] abbreviates: mice, oral route, dose inhibiting by 50% the contortions induced by phenylbenzoquinone i.p. 60 minutes after product.
Setting [4] is: mice, s.c. route, dose inhibiting by 50% the contortions induced by phenylbenzoquinone i.p. 30 minutes after product.

Regarding `CC(=O)Oc1ccccc1C(=O)O` [Aspirin, aspirin], the ED50 in the experiment with Swiss albino mice [1] (0.5 h, mice, s.c. route, dose inhibiting by 50% the contortions induced by phenylbenzoquinone i.p. 30 minutes after product, read-out: ED-50 S.C. route) stood at 80 mg/kg; in the experiment on Swiss albino mice [1] (1 h, mice, oral route, dose inhibiting by 50% the contortions induced by phenylbenzoquinone i.p. 60 minutes after product, read-out: ED-50 Oral route), 100 mg/kg.
Take `Cc1c(N(C)CS(=O)(=O)[O-])c(=O)n(-c2ccccc2)n1C.[Na+]` [Dipirone, dipirone]: the “ED-50 Oral route” value with Swiss albino mice [1] (setting [3]) is given as 223 mg/kg. In addition, the “ED-50 S.C. route” value with Swiss albino mice [1] (setting [4]) came to 24 mg/kg.
For `OC1(c2ccc(Cl)cc2)CCN(CCCCn2cc(Cl)cn2)CC1` [Example 5] the same measures were 20 mg/kg and 28 mg/kg.
As for `CN1CC[C@]23c4c5ccc(O)c4O[C@H]2[C@@H](O)C=C[C@H]3[C@H]1C5` [Morfine, morphine], the ED50 in the experiment on Swiss albino mice [2] is 2 mg/kg; in the experiment with Swiss albino mice [1] (0.5 h, read-out: ED-50 S.C. route), 1 mg/kg; with Swiss albino mice [1] (1 h, read-out: ED-50 Oral route) it was 4 mg/kg.
